The source made the active and inactive calls. No cut-off for these calls is given here.
Legend:
[1] = Selectivity index, ratio of GI50 for human HaCaT cells to GI50 for human MCF7 cells; format: toxicity; details: HaCaT cells versus MCF7 cells, read-out: RatioGI50
[2] = system: HepG2; experiment: Cytotoxicity against human HepG2 cells assessed as cell growth inhibition measured after 72 hrs by MTT assay; format: functional
[3] = Selectivity index, ratio of GI50 for human HaCaT cells to GI50 for human HepG2 cells; format: toxicity; details: HaCaT cells versus HepG2 cells, read-out: RatioGI50
[4] = Selectivity index, ratio of GI50 for mouse BALA/3T3 cells to GI50 for human WM793 cells
[5] = Selectivity index, ratio of GI50 for human HaCaT cells to GI50 for human HeLa cells; format: toxicity; details: HaCaT cells versus HeLa cells, read-out: RatioGI50
[6] = system: THP-1; experiment: Cytotoxicity against human THP-1 cells assessed as cell growth inhibition measured after 72 hrs by MTT assay; format: functional
[7] = Selectivity index, ratio of GI50 for human HaCaT cells to GI50 for human WM793 cells
[8] = Selectivity index, ratio of GI50 for mouse BALA/3T3 cells to GI50 for human HepG2 cells; format: toxicity; details: BALA/3T3 cells versus HepG2 cells, read-out: RatioGI50
[9] = system: MCF7; experiment: Cytotoxicity against human MCF7 cells assessed as cell growth inhibition measured after 72 hrs by MTT assay; format: functional
[10] = Selectivity index, ratio of GI50 for mouse BALA/3T3 cells to GI50 for human THP-1 cells
[11] = Selectivity index, ratio of GI50 for human HaCaT mouse BALA/3T3 cells to GI50 for human A549 cells; format: toxicity; details: read-out: RatioGI50
[12] = system: HCT-116; experiment: Cytotoxicity against human HCT-116 cells assessed as cell growth inhibition measured after 72 hrs by MTT assay; format: functional
[13] = system: WM793; experiment: Cytotoxicity against human WM793 cells assessed as cell growth inhibition measured after 72 hrs by MTT assay; format: functional
[14] = Cytotoxicity against mouse BALB/3T3 cells assessed as cell growth inhibition measured after 72 hrs by MTT assay; format: cell-based
[15] = Selectivity index, ratio of GI50 for mouse BALA/3T3 cells to GI50 for human HeLa cells; format: toxicity; details: BALA/3T3 cells versus HeLa cells, read-out: RatioGI50
[16] = Selectivity index, ratio of GI50 for human HaCaT cells to GI50 for human THP-1 cells
[17] = system: A549; experiment: Cytotoxicity against human A549 cells assessed as cell growth inhibition measured after 72 hrs by MTT assay; format: functional
[18] = Selectivity index, ratio of GI50 for human HaCaT cells to GI50 for human A549 cells; format: toxicity; details: HaCaT cells versus A549 cells, read-out: RatioGI50
[19] = Cytotoxicity against human HaCaT cells assessed as cell growth inhibition measured after 72 hrs by MTT assay; format: cell-based
[20] = system: HeLa; experiment: Cytotoxicity against human HeLa cells assessed as cell growth inhibition measured after 72 hrs by MTT assay; format: functional
[21] = Selectivity index, ratio of GI50 for mouse BALA/3T3 cells to GI50 for human HCT-116 cells; format: toxicity; details: BALA/3T3 cells versus HCT-116 cells, read-out: RatioGI50
[22] = Selectivity index, ratio of GI50 for mouse BALA/3T3 cells to GI50 for human MCF7 cells; format: toxicity; details: BALA/3T3 cells versus MCF7 cells, read-out: RatioGI50
[23] = Selectivity index, ratio of GI50 for human HaCaT cells to GI50 for human HCT-116 cells; format: toxicity; details: HaCaT cells versus HCT-116 cells, read-out: RatioGI50
[24] = system: MCF7; experiment: Induction of apoptosis in human MCF7 cells assessed as activation of cleaved PARP1 expression at 0.7 uM incubated for 24 hrs by Western blot analysis; format: functional, cell-based
[25] = system: Salmon testes DNA; experiment: Displacement of methyl green from salmon sperm DNA at 1 uM measured after 2 hrs by fluorescence plate reader method relative to control; format: cell-based; details: Salmo salar, Spermatozoa
[26] = system: HCT-116; experiment: Induction of DNA damage in human HCT-116 cells assessed as increase in tail length incubated at 0.5 uM measured after 24 hrs by alkaline Comet assay; format: functional
[27] = system: HCT-116; experiment: Induction of cell cycle arrest in human HCT-116 cells assessed as decrease in phospho-Rb expression measured after 24 hrs by Western blot analysis; format: functional, cell-based
[28] = system: HCT-116; experiment: Induction of DNA damage in human HCT-116 cells assessed as increase in olive tail moment incubated at 0.5 uM measured after 24 hrs by alkaline Comet assay; format: functional
[29] = system: Salmon testes DNA; experiment: Displacement of methyl green from salmon sperm DNA at 10 uM measured after 2 hrs by fluorescence plate reader method relative to control; format: cell-based; details: Salmo salar, Spermatozoa
[30] = system: HepG2; experiment: Induction of apoptosis in human HepG2 cells assessed as increase in Cdk2 expression at 1.6 uM after 24 hrs by Western blot analysis; format: functional, cell-based
[31] = system: HepG2; experiment: Induction of apoptosis in human HepG2 cells assessed as increase in phospho-Chk2 expression at 1.6 uM after 24 hrs by Western blot analysis; format: functional, cell-based
[32] = system: BALB/3T3; experiment: Induction of DNA damage in mouse BALB/3T3 cells assessed as increase in tail length incubated at 1.6 uM measured after 24 hrs by alkaline Comet assay; format: cell-based; details: balb/3t3, 24 h
[33] = system: HepG2; experiment: Induction of DNA damage in human HepG2 cells assessed as increase in tail length incubated at 0.5 uM measured after 24 hrs by alkaline Comet assay; format: functional
[34] = system: HepG2; experiment: Induction of apoptosis in human HepG2 cells assessed as increase in Bax expression at 1.6 uM after 24 hrs by Western blot analysis; format: functional, cell-based
[35] = system: HepG2; experiment: Induction of apoptosis in human HepG2 cells assessed as effect on phospho-Rb expression at 1.6 uM after 24 hrs by Western blot analysis; format: functional, cell-based
[36] = system: HepG2; experiment: Induction of DNA damage in human HepG2 cells assessed as increase in olive tail moment incubated at 0.5 uM measured after 24 hrs by alkaline Comet assay; format: functional
[37] = system: HCT-116; experiment: Induction of apoptosis in human HCT-116 cells assessed as activation of cleaved PARP1 expression at 0.7 uM incubated for 24 hrs by Western blot analysis; format: functional, cell-based
[38] = system: BALB/3T3; experiment: Induction of DNA damage in mouse BALB/3T3 cells assessed as increase in olive tail moment incubated at 1.6 uM measured after 24 hrs by alkaline Comet assay; format: cell-based; details: balb/3t3, 24 h
[39] = Cytotoxicity against human HaCaT cells assessed as cell growth inhibition at 100 uM measured after 72 hrs by MTT assay relative to control; format: cell-based; details: read-out: Activity

| SMILES | selectivity ratio [1] | GI50 [2] [µM] | selectivity ratio [3] | RatioGI50 [4] | selectivity ratio [5] | GI50 [6] [µM] | RatioGI50 [7] | selectivity ratio [8] | GI50 [9] [µM] | RatioGI50 [10] | selectivity ratio [11] | GI50 [12] [µM] | GI50 [13] [µM] | GI50 at 72 h [14] [µM] | selectivity ratio [15] | RatioGI50 [16] | GI50 [17] [µM] | selectivity ratio [18] | GI50 at 72 h [19] [µM] | GI50 [20] [µM] | also measured |
| --- | --- | --- | --- | --- | --- | --- | --- | --- | --- | --- | --- | --- | --- | --- | --- | --- | --- | --- | --- | --- | --- |
| COC(=O)c1[nH]c2ccc(F)cc2c1C=O | 0.67 | > 100 | 0.67 | 0.81 | 0.67 | 7.7 | 0.81 | 0.67 | > 100 | 8.66 | 1.49 | > 100 | 82.5 | 64 | 0.67 | 8.66 | 44.8 | 1.49 | 69.3 | 100 | selectivity ratio [21]: 0.67; selectivity ratio [22]: 0.67; selectivity ratio [23]: 0.67 |
| COc1cccc2c1C(=O)c1c(O)c3c(c(O)c1C2=O)C[C@@](O)(C(=O)CO)C[C@@H]3O[C@H]1C[C@H](N)[C@H](O)[C@H](C)O1 [DOXORUBICIN] |  | 0.7 |  |  |  | 0.6 |  |  | 0.4 |  |  | 0.6 | 0.6 | 0.6 |  |  | 0.6 |  | 0.9 | 0.3 | Activity [24]: Active; Activity [25]: 29.2%; Activity [26]: 28.4%; Activity [27]: Active; Activity [28]: 10.3; Activity [29]: 69.7%; Activity [30]: Active; Activity [31]: Active; Activity [32]: 15.9%; Activity [33]: 23.4%; Activity [34]: Active; Activity [35]: Active; Activity [36]: 6.92; Activity [37]: Active; Activity [38]: 5.9 |
| COC(=O)c1[nH]c2ccc(F)cc2c1/C=C1\SC(=O)NC1=S | 1.64 | 60.9 | 1.41 | 1.04 | 1.57 | 28.5 | 1.04 | 1.41 | 52.5 | 3.02 | 9.9 | 45.1 | 83.1 | 89.2 | 1.57 | 3.02 | 8.7 | 9.9 | 83.1 | 55 | selectivity ratio [21]: 1.91; selectivity ratio [22]: 1.64; selectivity ratio [23]: 1.91 |
| COC(=O)c1[nH]c2ccc(F)cc2c1/C=C1\SC(N)=NC1=O | 0.96 | 49.8 | 1.31 | 0.66 | 0.7 | 100 | 0.66 | 1.31 | 67.7 | 0.65 | 1.04 | 9.5 | 98.6 | 30.3 | 0.7 | 0.65 | 62.7 | 1.04 | > 100 | 93.3 | inhibition at 72 h, 100 µM [39]: 20.2%; selectivity ratio [21]: 6.86; selectivity ratio [22]: 0.96; selectivity ratio [23]: 6.86 |
| COC(=O)c1[nH]c2ccc(F)cc2c1/C=C1\NC(=S)NC1=O | 1.57 | 33.9 | 2.95 | 1.19 | 1.72 | 58.3 | 1.19 | 2.95 | 63.7 | 1.72 | 2.03 | 53 | 84.2 | > 100 | 1.72 | 1.72 | 49.2 | 2.03 | > 100 | 58.1 | inhibition at 72 h, 100 µM [39]: 43.3%; selectivity ratio [21]: 1.89; selectivity ratio [22]: 1.57; selectivity ratio [23]: 1.89 |
| COC(=O)c1[nH]c2ccc(F)cc2c1/C=C1\SC(=O)NC1=O | 1.24 | 29.8 | 3.36 | 1.2 | 2.1 | 45 | 1.2 | 3.36 | 80.7 | 1.72 | 3.94 | 67.6 | 83.1 | > 100 | 2.1 | 1.72 | 25.4 | 3.94 | > 100 | 47.6 | inhibition at 72 h, 100 µM [39]: 43.4%; selectivity ratio [21]: 1.48; selectivity ratio [22]: 1.24; selectivity ratio [23]: 1.48 |

— ChEMBL document CHEMBL5055656, “Synthesis of novel indole-thiazolidinone hybrid structures as promising scaffold with anticancer potential” (Bioorg Med Chem, 2021)
